The structures appear in SMILES notation. Calls of active or inactive are those of the source. How the calls were made is not given here.

The target in one assay is glutathione S-transferase (GST-GSH binding). Put plainly: GST–glutathione interaction disruption – biochemical, multiplex beads, flow cytometry, HPSMTB buffer, profiling panel (AID 1324).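 Further: glutathione beads loaded with GST-green fluorescent protein and no fluorescent Bim peptide.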 The following applies: multiplex bead flow cytometry, MCF.
On to `COc1cc(/C=N/Nc2nn3cnnc3c3ccccc23)ccc1O`, for which the EC50 was 2.36 µM.
Consider `CCOC(=O)c1c2c3c(c(Cl)ccc3[nH]c1=O)C(=O)c1ccccc1-2`, for which the EC50 was 5.4 µM.
The same measure, in the same setting: with `COc1cccc(/C=N/Nc2nn3cnnc3c3ccccc23)c1` the figure was 7.28 µM; with `O=C1c2ccccc2-c2onc3ccc(NCCCn4ccnc4)c1c23`, “inactive”.
The same measure, in the same setting: next, `CN(C)c1ncc(C2=C(Cl)C(=O)C(N3CCCC3)=C(Cl)C2=O)s1`: 8.83 µM.

Still in this assay, the particulars now being: multiplex bead flow cytometry, MCF, active compounds read high, concentration not given here.
For the compound `O=C(O)c1ccc(NC2=C/C(=N/S(=O)(=O)c3ccccc3)c3ccccc3C2=O)cc1`, the percent span inhibition result is “inactive”.
Turning to `O=C(OCc1nc2ccccc2[nH]1)C12CC3CC(CC(C3)C1)C2`, the percent span inhibition result was “inactive”.
On to `Cc1cc(N/C(=N/S(=O)(=O)c2cc(F)ccc2F)c2ccccc2)n(-c2ccccc2)n1`, for which the percent span inhibition entry was “inactive”.
Turning to `CCC(=O)OCCNc1cc(Sc2nc3ccccc3s2)c2nonc2c1[N+](=O)[O-]`, the percent span inhibition entry is “inactive”.
Regarding `COc1ccc(NC(=O)c2ccc(CN3CCN(c4ccccc4)CC3)cc2)cc1`, the percent span inhibition entry was “inactive”.
In the case of `CN(C)CCNC(=O)C(=O)C1C(=O)Nc2ccccc21` (configuration not stated), the percent span inhibition entry is “inactive”.
Still for that read-out and setting: next, `CN(/N=C/c1cccnc1)C1=NS(=O)(=O)c2ccccc21`: “inactive”; `O=C(c1cccc(Br)c1)N1CCN(c2cnn(-c3ccccc3)c(=O)c2Cl)CC1`: “inactive”; `O=C(Nc1nnc(COc2ccc(Cl)cc2)s1)c1ccco1`: “inactive”.
Take `COc1ccc(/C=C2\SC(=O)NC2=S)cc1OC`: the percent span inhibition entry is “inactive”.
Take `C=CCn1c(SCC(=O)Nc2ccc3c(c2)OCO3)nnc1-c1cc(Br)ccc1O`: the percent span inhibition result is “inactive”.
`CC(=O)c1ccc(NC(=O)c2ccc3nc(-c4ccco4)c(-c4ccco4)nc3c2)cc1`: the percent span inhibition result was “inactive”.
Same read-out and setting: with `COc1cc(CNc2ccc3[nH]c(=O)[nH]c3c2)cc(Br)c1OCC(=O)NC(C)(C)C` the entry was “inactive”; with `S=c1[nH]cc(-c2ccccc2)n1-c1ccccc1Cl`, “inactive”; with `COc1ccc(OC)c(NC(=O)COC(=O)c2cc3c(s2)CCC3)c1`, “inactive”.
For `Cc1c(N=C2C=CC(=O)c3ccccc32)c(=O)n(-c2ccccc2)n1C`, the percent span inhibition entry is “inactive”.
Consider `Cc1cc(/C=C(/C#N)C(=O)Nc2ccc(Cl)cc2)c(C)n1-c1cccnc1`, for which the percent span inhibition result was “inactive”.
With `Fc1ccc(/C=C2\CCCC3=C2NC(=S)NC3c2ccc(F)cc2)cc1` (configuration not stated), the percent span inhibition result is “inactive”.
As to `CN(C)c1ccc(/C=C2/SC(=O)N(CCN=C3NS(=O)(=O)c4ccccc43)C2=O)cc1`, the percent span inhibition entry was “inactive”.
Take `O=C1NC(=O)C2(Cc3c(nc4ccccn4c3=O)N3CCCCCC32)C(=O)N1Cc1ccccc1` (configuration not stated): the percent span inhibition result is “inactive”.
As to `O=C(C1=NN(c2ccccc2)C2C(=O)N(c3ccccc3)C(=O)C12)c1ccccc1` (configuration not stated), the percent span inhibition entry is “inactive”.
With `Cc1ccccc1OCC(=O)N/N=C/c1ccccn1`, the percent span inhibition entry was “inactive”.
With `Cn1c(=O)c(C(=O)COC(=O)c2cc(-c3ccco3)nc3ccccc23)c(N)n(CC2CC2)c1=O`, the percent span inhibition entry is “inactive”.
Take `O=C(N/N=C/c1ccc(-c2ccccc2[N+](=O)[O-])o1)c1cncc(Br)c1`: the percent span inhibition entry was “inactive”.
With `O=C(O)C1=C[C@H](C2CC2)C[C@H](OCCCCO)O1`, the percent span inhibition result was “inactive”.
In the case of `O=C1/C(=C\c2ccco2)NC(=S)N1c1ccccc1`, the percent span inhibition entry was “inactive”.
In the case of `CN1CCN(c2ccccc2N)CC1`, the percent span inhibition entry was “inactive”.
Consider `Cc1cnnn1-c1ccc(C(=O)CCl)cc1`, for which the percent span inhibition result is “inactive”.
As to `Cc1ccc(-c2cc(C(=O)N3CCN(c4ncccn4)CC3)c3cc(Br)ccc3n2)o1`, the percent span inhibition entry is “inactive”.
For the compound `CCOC(=O)CSC1=NC(=O)/C(=C\c2ccc(OC(C)=O)cc2)S1`, the percent span inhibition entry is “inactive”.
With `CSc1nnc2ccc(-c3cccs3)nn12`, the percent span inhibition result is “inactive”.
On the same count and under the same terms, with `COc1ccc(OCCNC(=O)c2ccccc2OCC(=O)N2CCCCC2)cc1` the entry was “inactive”; with `COc1ccc(N2C(=O)C(Cl)=C(Oc3cccc(OC)c3)C2=O)cc1`, “inactive”; with `CNCc1ccccc1Sc1ccc(O)c(O)c1`, “inactive”.
On the same count and under the same terms, with `Cn1c(=O)[nH]c(=O)c2c1nc(N1CCOCC1)n2CCSc1nc2ccccc2[nH]1` the entry was “inactive”; with `COC(=O)CCC(=O)Nc1sc(Cc2ccccc2)c(C)c1C(N)=O`, “inactive”.
Regarding `O=C(Nc1cccc(-c2ccc3nncn3n2)c1)c1ccco1`, the percent span inhibition result is “inactive”.
Still for that read-out and setting: with `O=C(NCCc1ccccc1)c1ccc2nc(-c3ccco3)c(-c3ccco3)nc2c1` the entry was “inactive”; with `Cc1ccc(C(=O)C(C(=O)/C=C/c2ccccc2)=C2SCCCS2)cc1`, “inactive”; with `Cc1ccc(-c2cc(-c3ccc(C)o3)nc(N)c2C#N)cc1`, “inactive”.
Take `CN(CCCOc1ccccc1Br)Cc1ccccc1`: the percent span inhibition result was “inactive”.
Same read-out and setting: with `Cc1ccc2c(c1)C1CN(C)CCC1N2C(=O)Nc1cccc(Cl)c1` (configuration not stated) the entry was “inactive”; with `C=CCn1c(C)c(C(C)=O)c(N2CCOCC2)nc1=S`, “inactive”.
Still for that read-out and setting: with `C#CCn1cc(C=C2C(=O)c3ccccc3C2=O)c2ccccc21` the entry was “inactive”.
For `COc1ccc(NC(=O)c2ccco2)cc1NC(=O)c1ccco1`, the percent span inhibition entry is “inactive”.
Consider `O=C(OCc1cnc(Cl)s1)c1cccc(Cl)c1Cl`, for which the percent span inhibition result is “inactive”.
With `Cc1nnc(NCc2n[nH]c(=O)c3ccccc23)c2ccccc12`, the percent span inhibition entry was “inactive”.
`CCN(CC)c1ccc(NC(=O)c2ccc(=O)[nH]c2)cc1S(=O)(=O)Nc1ccccc1OC`: the percent span inhibition entry is “inactive”.
For `O=C(Cc1ccc(-c2ccccc2)cc1)NC1CCCC1`, the percent span inhibition result was “inactive”.
For `CCOC(=O)C1CCCN(c2ncnc3c2cnn3-c2cccc(C)c2)C1` (configuration not stated), the percent span inhibition result was “inactive”.
Consider `COc1ccc(N2CCN(C(CNS(=O)(=O)c3ccc4c(c3)OCCO4)c3ccco3)CC2)cc1` (configuration not stated), for which the percent span inhibition result is “inactive”.
For `CC(C(=O)Nc1cc([N+](=O)[O-])ccc1Cl)N1CCN(c2ccc(O)cc2)CC1` (configuration not stated), the percent span inhibition result is “inactive”.
Same read-out and setting: with `Cc1ccc(-c2cc(C(=O)Nc3cccnc3)c3ccccc3n2)o1` the entry was “inactive”; with `N#CC(C#N)=C1C=CC=CN1/C(=C\c1ccco1)C(=O)c1ccccc1`, “inactive”.
On the same count and under the same terms, with `O=C1NCCN1C(=O)N(c1ccccc1)c1ccccc1` the entry was “inactive”; with `CN(C)c1ccc(Nc2nc(-c3cccnc3)cs2)cc1`, “inactive”.
With `CCN(CC)c1ccc(NC(=O)c2ccccc2Br)cc1S(=O)(=O)Nc1ccccc1OC`, the percent span inhibition entry was “inactive”.
As to `Clc1ccc2c(N/N=C/c3ccc(Br)cc3)ccnc2c1`, the percent span inhibition entry is “inactive”.
On to `COc1cccc(/C=C2/SC(=O)N(C)C2=O)c1OCc1ccc(C(=O)O)cc1`, for which the percent span inhibition result is “inactive”.
Take `CCn1cc(C=C2C(=O)c3ccccc3C2=O)c2ccccc21`: the percent span inhibition result is “inactive”.
The same measure, in the same setting: next, `Cc1cc(Cl)ccc1N=c1ssnc1Cl`: “inactive”; `CC(C(=O)Nc1ccc([N+](=O)[O-])cc1)N1CCN(C/C=C/c2ccccc2)CC1` (configuration not stated): “inactive”.
For `O=C(Nc1ccccc1)c1ccc2nc(-c3ccco3)c(-c3ccco3)nc2c1`, the percent span inhibition entry was “inactive”.
Take `Cc1nc2ncccn2c1-c1csc(Nc2ccccc2)n1`: the percent span inhibition entry was “inactive”.
The same measure, in the same setting: next, `CCOC(=O)C1(Cc2cccc(OC)c2)CCN(Cc2cccc(OC)c2OC)CC1`: “inactive”.
As to `Cc1ccc(/C=C/C(=O)c2ccccc(=O)c2O)cc1C`, the percent span inhibition entry is “inactive”.
On the same count and under the same terms, next, `Cn1c(CNc2nc(-c3ccccc3)cs2)nnc1SCC(=O)N1CCc2ccccc21`: “inactive”; `CCNCc1cc(Br)c(OCC(=O)Nc2ccccc2)c(OC)c1`: “inactive”; `Cc1cc(C)cc(NS(=O)(=O)c2ccc3c(c2)c(=O)n(C)c(=O)n3C)c1`: “inactive”.
For `O=C(c1ccccc1NS(=O)(=O)c1ccc(Br)s1)N1CCCC1`, the percent span inhibition entry was “inactive”.
As for `Cn1c(N)c(C(=O)COC(=O)c2cc(-c3ccco3)nc3ccccc23)c(=O)n(Cc2ccccc2)c1=O`, the percent span inhibition entry was “inactive”.
On the same count and under the same terms, next, `C#CCOCCOCCOCCNc1nc(N2CCN(C(=O)[C@H](CCCCN)n3cc(CCCC)nn3)CC2)nc(N2CCN(C(=O)[C@H](Cc3ccc(O)cc3)n3cc(CCO)nn3)CC2)n1`: “inactive”; `Cc1cc(NC(=O)CCSc2ccccc2)ccc1Br`: “inactive”.
On to `Nc1ccc(Nc2nc(-c3ccncc3)cs2)cc1`, for which the percent span inhibition result is “inactive”.
With `COc1ccc(N2CCN(C(=O)c3cc(=O)[nH]c4ccccc34)CC2)cc1`, the percent span inhibition entry was “inactive”.
Take `Cc1cc2nc(/C(C#N)=C/c3ccncc3)[nH]c2cc1C`: the percent span inhibition entry was “inactive”.
Turning to `Cc1cc(C)nc(/N=c2/ssnc2Cl)c1`, the percent span inhibition entry was “inactive”.
Still for that read-out and setting: with `COc1ccc(NC(=O)C2=C(C)NC(=O)NC2c2cccc(OC)c2OC)c(OC)c1` (configuration not stated) the entry was “inactive”; with `COc1ccccc1Oc1ccc2c(c1)C(=O)N(c1ccccc1)C2=O`, “inactive”.
For `CCc1cccc(CC)c1NC(=S)N1CCn2cccc2C1c1cccnc1` (configuration not stated), the percent span inhibition result is “inactive”.
As for `CCOC(=O)c1snc(-c2ccc(F)cc2)c1N`, the percent span inhibition entry is “inactive”.
Regarding `Cc1cc[n+]2cc(-c3cccc([N+](=O)[O-])c3)c(-c3cccc([N+](=O)[O-])c3)cc2c1`, the percent span inhibition entry is “inactive”.

The values are drawn from PubChem BioAssay AID1324 (NMMLSC, 2008).
